Assay results: ChEMBL document CHEMBL3244027, “Syntheses, analgetic activity, and physical dependence capacity of 5-phenyl-6,7-benzomorphan derivatives” (J Med Chem, 1979)
Activity calls are given as the source filed them. The rule behind the calls is not given here.

How the values were obtained:
Mus musculus [1] = assay: Analgetic activity in sc dosed CF1S mouse assessed as writhing by phenylquinone writhing test; format: functional; settings: Mus musculus, CF1S, sc; read-out: ED50
Mus musculus [2] = assay: Analgetic activity against CF-1 mouse assessed as increase in reaction time at 40 mg/kg, sc by heat stimulus induced tail flick response assay; format: functional, organism-based; parameters: dose 40 mg/kg
Mus musculus [3] = assay: Analgetic activity in po dosed CF1S mouse assessed as writhing by phenylquinone writhing test; format: functional; settings: Mus musculus, CF1S, po; read-out: ED50
Mus musculus [4] = organism: Mus musculus; assay: Analgetic activity in naloxone challenged mouse assessed as frequency pretreated for 2 day by mouse jumping test; format: functional, organism-based
Mus musculus [5] = assay: Analgetic activity against CF-1 mouse assessed as increase in reaction time at 160 mg/kg, po by heat stimulus induced tail flick response assay; format: functional, organism-based; parameters: dose 160 mg/kg
Mus musculus [6] = assay: Analgetic activity against CF-1 mouse assessed as increase in reaction time at 320 mg/kg, po by heat stimulus induced tail flick response assay; format: functional, organism-based; parameters: dose 320 mg/kg
Mus musculus [7] = assay: Analgetic activity against CF-1 mouse assessed as increase in reaction time at 160 mg/kg, sc by heat stimulus induced tail flick response assay; format: functional, organism-based; parameters: dose 160 mg/kg
Mus musculus [8] = assay: Analgetic activity against CF-1 mouse assessed as increase in reaction time at 320 mg/kg, sc by heat stimulus induced tail flick response assay; format: functional, organism-based; parameters: dose 320 mg/kg
Mus musculus [9] = assay: Analgetic activity against CF-1 mouse assessed as increase in reaction time at 20 mg/kg, sc by heat stimulus induced tail flick response assay; format: functional, organism-based; parameters: dose 20 mg/kg
Mus musculus [10] = assay: Analgetic activity against CF-1 mouse assessed as increase in reaction time at 80 mg/kg, sc by heat stimulus induced tail flick response assay; format: functional, organism-based; parameters: dose 80 mg/kg

## Br.CN1CCC(c2ccccc2)=CC1Cc1ccccc1 (stereo not given)
Mus musculus [1]
  ED50: 6.6 mg/kg
Mus musculus [2]
  Activity: Active
Mus musculus [3]
  ED50: 37 mg/kg
Mus musculus [4]
  Activity: inactive

## CC1C2Cc3ccc(O)cc3C1(c1ccccc1)CCN2CCC(=O)c1ccccc1 (stereo not given)
Mus musculus [5]
  Activity: Active

## CN(C)C(=S)Oc1ccc2c(c1)C1(c3ccccc3)CCN(C)C(C2)C1 (racemic)
Mus musculus [2]
  Activity: inactive
Mus musculus [6]
  Activity: inactive

## c1ccc(CCN2CCC3(c4ccccc4)CC2Cc2ccccc23)cc1 (stereo not given)
Mus musculus [7]
  Activity: inactive

## CN1CCC2(c3ccc(Cl)cc3)CC1Cc1ccc(O)cc12 (racemic)
Mus musculus [2]
  Activity: Active

## CC1C2Cc3ccc(O)cc3C1(c1ccccc1)CCN2CCN1CCOCC1 (stereo not given)
Mus musculus [1]
  ED50: > 100 mg/kg
Mus musculus [6]
  Activity: inactive
Mus musculus [3]
  ED50: > 100 mg/kg

## CC1C2Cc3ccc(O)cc3C1(c1ccccc1)CCN2CC12CC3CC(CC(C3)C1)C2.Cl (stereo not given)
Mus musculus [6]
  Activity: inactive
Mus musculus [3]
  ED50: > 100 mg/kg

## CN1CCC2(c3ccccc3)CC1Cc1cc(O)c(O)cc12 (racemic)
Mus musculus [8]
  Activity: inactive

## CC(C)=CCN1CCC2(c3ccccc3)c3cc(O)ccc3CC1C2C (stereo in doubt; 207)
Mus musculus [4]
  Activity: inactive

## CN1CCC2(c3ccccc3)CC1Cc1cc(O)c(O)c(O)c12 (racemic)
Mus musculus [5]
  Activity: inactive

## COc1ccc(CC2C=C(c3ccccc3)CCN2C)cc1OC (stereo not given)
Mus musculus [2]
  Activity: Active

## CN1CCC(c2ccccc2)=CC1Cc1ccc(O)cc1 (stereo not given)
Mus musculus [9]
  Activity: Active
Mus musculus [1]
  ED50: 1.5 mg/kg
Mus musculus [3]
  ED50: 27 mg/kg
Mus musculus [4]
  Activity: inactive

## c1ccc(C23CCNC(Cc4ccccc42)C3)cc1 (stereo not given)
Mus musculus [7]
  Activity: Active

## Br.CC1=C(c2ccccc2)CCN(C)C1Cc1ccccc1 (stereo not given)
Mus musculus [1]
  ED50: 45 mg/kg
Mus musculus [7]
  Activity: Active

## Oc1ccc2c(c1)C1(c3ccccc3)CCN(CCc3ccccc3)C(C2)C1 (racemic)
Mus musculus [2]
  Activity: Active

## CC1C2Cc3ccc(O)cc3C1(c1ccccc1)CCN2CC(c1ccccc1)c1ccccc1 (stereo not given)
Mus musculus [5]
  Activity: inactive

## Oc1ccc2c(c1)C1(c3ccccc3)CCN(CCCc3ccccc3)C(C2)C1 (racemic)
Mus musculus [5]
  Activity: Active
Mus musculus [3]
  ED50: > 100 mg/kg

## C#CCN1CCC2(c3ccccc3)c3cc(O)ccc3CC1C2C (stereo not given)
Mus musculus [4]
  Activity: inactive

## CN1CCC(c2ccccc2)=CC1Cc1ccc(F)cc1 (stereo not given)
Mus musculus [10]
  Activity: Active

## CCOC(=O)C(C)N1CCC2(c3ccccc3)c3cc(O)ccc3CC1C2C (stereo not given)
Mus musculus [8]
  Activity: inactive
Mus musculus [1]
  ED50: > 100 mg/kg

## COc1ccc(CC2C=C(c3ccccc3)CCN2C)cc1 (stereo not given)
Mus musculus [10]
  Activity: Active
Mus musculus [4]
  Activity: inactive

## Oc1ccc2c(c1)C1(c3ccccc3)CCN(CCCCc3ccccc3)C(C2)C1 (racemic)
Mus musculus [6]
  Activity: inactive
Mus musculus [3]
  ED50: > 100 mg/kg

## CCCN1CCC2(c3ccccc3)c3cc(O)ccc3CC1C2C (stereo in doubt; 173)
Mus musculus [8]
  Activity: inactive

## CCOC(=O)CCN1CCC2(c3ccccc3)CC1Cc1ccc(O)cc12 (racemic)
Mus musculus [8]
  Activity: inactive
Mus musculus [1]
  ED50: 78 mg/kg
Mus musculus [3]
  ED50: > 100 mg/kg

## CCCCCCCCCCN1CCC2(c3ccccc3)c3cc(O)ccc3CC1C2C.Cl (stereo not given)
Mus musculus [1]
  ED50: 70 mg/kg
Mus musculus [6]
  Activity: inactive
Mus musculus [3]
  ED50: > 100 mg/kg

## C[C@@H]1C2Cc3ccc(O)cc3C1(c1ccccc1)CCN2C (mixture of isomers)
Mus musculus [7]
  Activity: Active

## CN1CCC2(c3ccccc3)CC1Cc1ccc(O)cc12 (racemic)
Mus musculus [9]
  Activity: Active

## CC(=O)Oc1ccc2c(c1)C1(c3ccccc3)CCN(C)C(C2)C1 (racemic)
Mus musculus [1]
  ED50: 9.4 mg/kg
Mus musculus [10]
  Activity: inactive
Mus musculus [4]
  Activity: inactive

## Oc1ccc2c(c1)C1(c3ccccc3)CCN(C/C=C/Cl)C(C2)C1 (racemic)
Mus musculus [1]
  ED50: > 100 mg/kg
Mus musculus [4]
  Activity: inactive

## CC1C2Cc3ccc(O)cc3C1(c1ccccc1)CCN2CCO (racemic)
Mus musculus [6]
  Activity: inactive
Mus musculus [7]
  Activity: inactive

## CCOC(=O)CN1CCC2(c3ccccc3)c3cc(O)ccc3CC1C2C (stereo not given)
Mus musculus [8]
  Activity: inactive

## COc1ccc2c(c1)C1(c3ccccc3)CCNC(C2)C1.Cl (stereo not given)
Mus musculus [8]
  Activity: inactive
Mus musculus [1]
  ED50: 100 mg/kg

## CCC1=C(c2ccccc2)CCN(C)C1Cc1ccc(O)cc1 (stereo not given)
Mus musculus [10]
  Activity: Active
Mus musculus [4]
  Activity: inactive

## CC1C2Cc3ccc(O)cc3C1(c1ccccc1)CCN2 (stereo in doubt; 110)
Mus musculus [8]
  Activity: inactive
Mus musculus [6]
  Activity: inactive

## CN1CCC2(c3ccccc3)CC1Cc1ccccc12 (stereo in doubt; 37)
Mus musculus [8]
  Activity: inactive

## CCOC(=O)N1CCC2(c3ccccc3)CC1Cc1ccc(OC(C)=O)cc12 (racemic)
Mus musculus [6]
  Activity: inactive
Mus musculus [3]
  ED50: > 100 mg/kg

## Oc1ccc2c(c1)C1(c3ccccc3)CCN(CC3CCC3)C(C2)C1 (stereo in doubt; 145)
Mus musculus [4]
  Activity: inactive

## CC1C2Cc3ccc(O)cc3C1(c1ccccc1)CCN2Cc1ccco1 (stereo not given)
Mus musculus [8]
  Activity: inactive

## C/C(Cl)=C/CN1CCC2(c3ccccc3)c3cc(O)ccc3CC1C2C (racemic)
Mus musculus [1]
  ED50: > 100 mg/kg
Mus musculus [7]
  Activity: inactive

## CC(C)CCN1CCC2(c3ccccc3)c3cc(O)ccc3CC1[C@H]2C (stereo not given in full)
Mus musculus [5]
  Activity: Active

## Cc1ccc(S(=O)(=O)Oc2ccc3c(c2)C2(c4ccccc4)CCN(C)C(C3)C2)cc1 (racemic)
Mus musculus [10]
  Activity: inactive

## C[C@@H]1C2Cc3ccc(O)cc3C1(c1ccccc1)CCN2CCC(C)(C)O (stereo not given in full)
Mus musculus [8]
  Activity: inactive
Mus musculus [1]
  ED50: 78 mg/kg

## c1ccc(C23CCNC(Cc4ccccc42)C3)cc1 (racemic)
Mus musculus [10]
  Activity: Active

## Oc1ccc2c(c1)C1(c3ccccc3)CCNC(C2)C1 (racemic)
Mus musculus [8]
  Activity: inactive
Mus musculus [5]
  Activity: inactive

## O=[N+]([O-])c1ccc(CCN2CCC3(c4ccccc4)CC2Cc2ccc(O)cc23)cc1 (racemic)
Mus musculus [8]
  Activity: inactive

## CC1C2Cc3ccc(O)cc3C1(c1ccccc1)CCN2CCO (stereo not given)
Mus musculus [10]
  Activity: inactive

## CC(O)C(=O)O.CC1C2Cc3ccc(O)cc3C1(c1ccccc1)CCN2C/C=C/c1cccs1 (stereo not given)
Mus musculus [6]
  Activity: inactive
Mus musculus [3]
  ED50: > 100 mg/kg

## CC1C2Cc3ccc(OC(=O)C(c4ccccc4)c4ccccc4)cc3C1(c1ccccc1)CCN2C(=O)C(c1ccccc1)c1ccccc1.O (stereo not given)
Mus musculus [1]
  ED50: > 100 mg/kg
Mus musculus [6]
  Activity: inactive

## COc1ccc2c(c1)C1(c3ccccc3)CCN(CC=C(C)C)C(C2)C1C (stereo not given)
Mus musculus [8]
  Activity: inactive
Mus musculus [1]
  ED50: > 100 mg/kg

## CN(C)CCCN1CCC2(c3ccccc3)CC1Cc1ccc(O)cc12 (racemic)
Mus musculus [8]
  Activity: inactive

## C/C(Cl)=C\CN1CCC2(c3ccccc3)c3cc(O)ccc3CC1C2C (stereo not given)
Mus musculus [1]
  ED50: > 100 mg/kg
Mus musculus [10]
  Activity: inactive

## CC(=O)Oc1ccc2c(c1)C1(c3ccccc3)CCN(CC=C(C)C)C(C2)C1C (stereo not given)
Mus musculus [8]
  Activity: inactive

## c1ccc(CCN2CCC3(c4ccccc4)CC2Cc2ccccc23)cc1 (racemic)
Mus musculus [5]
  Activity: Active

## CCC1C2Cc3ccc(O)cc3C1(c1ccccc1)CCN2C (racemic)
Mus musculus [9]
  Activity: Active

## CC1C2Cc3ccc(O)cc3C1(c1ccccc1)CCN2CC1CCC1 (stereo in doubt; 219)
Mus musculus [4]
  Activity: inactive

## Oc1ccc2c(c1)C1(c3ccc(Cl)cc3)CCNC(C2)C1 (racemic)
Mus musculus [8]
  Activity: inactive

## CC1=C(c2ccccc2)CCN(C)C1Cc1ccc(O)cc1 (stereo not given)
Mus musculus [1]
  ED50: 5 mg/kg
Mus musculus [7]
  Activity: Active
Mus musculus [4]
  Activity: inactive

## C=C(Br)CN1CCC2(c3ccccc3)c3cc(O)ccc3CC1C2C.Cl (stereo not given)
Mus musculus [1]
  ED50: > 100 mg/kg
Mus musculus [2]
  Activity: inactive
Mus musculus [4]
  Activity: inactive

## CN1CCC2(c3ccc(Cl)cc3)CC1Cc1ccccc12 (racemic)
Mus musculus [10]
  Activity: Active
Mus musculus [5]
  Activity: Active

## OCCN1CCC2(c3ccccc3)CC1Cc1ccc(O)cc12 (racemic)
Mus musculus [8]
  Activity: inactive
Mus musculus [1]
  ED50: > 100 mg/kg

## CN1CCC2(c3ccccc3)CC1Cc1ccc(O)cc12 (stereo in doubt; 42)
Mus musculus [10]
  Activity: inactive

## Br.CN1CCC2(c3ccccc3)CC1Cc1ccc(F)cc12 (racemic)
Mus musculus [10]
  Activity: inactive
Mus musculus [3]
  ED50: 33 mg/kg

## Br.Clc1ccc(C23CCN(CCc4ccccc4)C(Cc4ccccc42)C3)cc1 (racemic)
Mus musculus [1]
  ED50: > 100 mg/kg
Mus musculus [6]
  Activity: inactive

## Br.CCN1CCC2(c3ccccc3)CC1Cc1ccccc12 (racemic)
Mus musculus [8]
  Activity: inactive
Mus musculus [1]
  ED50: 16 mg/kg

## CC1C2Cc3ccc(O)cc3C1(c1ccccc1)CCN2CCc1ccc([N+](=O)[O-])cc1.Cl (stereo not given)
Mus musculus [8]
  Activity: inactive
Mus musculus [6]
  Activity: inactive
Mus musculus [3]
  ED50: > 100 mg/kg
